For 66 molecules, glass transition temperature results are on record in the PolyMetriX glass transition set.

On to `*/C=C(/*)c1ccccc1[Si](C)(C)C` (repeat unit), for which the glass transition temperature stood at 190.00 °C.

As to `*/C=N/c1ccc(C(=O)OCCCCOCCCCOCCCCOC(=O)c2ccc(/N=C/c3ccc(*)s3)cc2)cc1` (repeat unit), the glass transition temperature turned out to be 25.00 °C.

Molecule `*C(=O)OCCCCOC(=O)c1ccc(N2C(=O)c3ccc(*)cc3C2=O)cc1` (repeat unit) had a glass transition temperature of 100.50 °C.

`*C(=O)OCCCSCCCCSCCCOC(=O)c1ccc(N2C(=O)c3ccc(*)cc3C2=O)cc1` (repeat unit) showed a glass transition temperature of 39.00 °C.

Take `*C(=O)OCCN(CCOC(=O)c1ccc2c(c1)C(=O)N(c1cccc(N3C(=O)c4ccc(*)cc4C3=O)c1)C2=O)c1ccc(/N=N/c2ccc([N+](=O)[O-])cc2)cc1` (repeat unit): the glass transition temperature came to 210.00 °C.

In the case of `*C(=O)OCCOC(=O)c1ccc(C(=O)OCCOC(=O)N2CCN(*)CC2)cc1` (repeat unit), the glass transition temperature is 53.00 °C.

Regarding `*C(=O)OCCOC(=O)c1cccc(N2C(=O)c3ccc(*)cc3C2=O)c1` (repeat unit), the glass transition temperature was determined as 220.00 °C.

`*CCCCCCCCCCOc1ccc(/N=C/c2ccc(/C=N/c3ccc(O*)cc3C)cc2)c(C)c1` (repeat unit) returned a glass transition temperature of 77.60 °C.

On to `*CCCCCCCCCCOc1ccc(CCc2ccc(O*)cc2C)cc1` (repeat unit), for which the glass transition temperature is -3.00 °C.

Molecule `*CCCCCCCCCOC(=O)C(O)C(O)C(=O)O*` (repeat unit) displayed a glass transition temperature of -11.00 °C.

In turn, `*CCCCCCCCCOC(=O)c1ccc(-c2ccc(C(=O)O*)cc2)cc1` (repeat unit) came in with a glass transition temperature of 50.50 °C.

With `*CCCCCCCCCOC(=O)c1ccc2cc(C(=O)O*)ccc2c1` (repeat unit), the glass transition temperature came out at 50.00 °C.

With `*CCCCCCCCOC(=O)c1ccc(-c2ccc(C(=O)O*)cc2)cc1` (repeat unit), the glass transition temperature came out at 47.00 °C.

Turning to `*CCCCCCCCOc1ccc(/C=C2\CC/C(=C\c3ccc(OCCCCCCCCOP(=O)(O*)OCC)c(OC)c3)C2=O)cc1OC` (repeat unit), the glass transition temperature is 62.00 °C.

As for `*CCCCCCCOC(=O)c1ccc(-c2ccc(C(=O)O*)cc2)cc1` (repeat unit), the glass transition temperature turned out to be 44.00 °C.

In turn, `*CCCCCCOC(=O)C(=O)O*` (repeat unit) returned a glass transition temperature of 66.50 °C.

Take `*CCCCCCOC(=O)C(CCCCCCCCCCP(=O)(O)O)C(=O)OCCCCCCOc1ccc(-n2on2-c2ccc(O*)cc2)cc1` (repeat unit): the glass transition temperature is 16.00 °C.

In the case of `*CCCCCCOC(=O)C(CCCCP(=O)(O)O)C(=O)OCCCCCCOc1ccc(-n2on2-c2ccc(O*)cc2)cc1` (repeat unit), the glass transition temperature turned out to be 19.00 °C.

Consider `*CCCCCCOC(=O)OCCCCCCCCCOC(=O)OCCCCCCOc1ccc(Oc2ccc(O*)cc2)cc1` (repeat unit), for which the glass transition temperature is -20.00 °C.

As for `*CCCCCCOC(=O)OCCCCCCCCOC(=O)OCCCCCCn1c(=O)c2cc3c(=O)n(*)c(=O)c3cc2c1=O` (repeat unit), the glass transition temperature was 8.00 °C.

The molecule `*CCCCCCOC(=O)OCCCCCCOC(=O)OCCCCCCN1C(=O)c2ccc(C(=O)c3ccc4c(c3)C(=O)N(*)C4=O)cc2C1=O` (repeat unit) registered a glass transition temperature of 40.00 °C.

In the case of `*CCCCCCOC(=O)OCCCCCCOC(=O)OCCCCCCOc1ccc(-c2ccc(O*)cc2)cc1` (repeat unit), the glass transition temperature came to 16.60 °C.

In turn, `*CCCCCCOC(=O)OCCCCCCOC(=O)OCCCCCCOc1ccc(Oc2ccc(O*)cc2)cc1` (repeat unit) registered a glass transition temperature of -13.00 °C.

Turning to `*CCCCCCOC(=O)OCCCCCOC(=O)OCCCCCCOc1ccc(Oc2ccc(O*)cc2)cc1` (repeat unit), the glass transition temperature is -11.00 °C.

For `*CCCCCCOC(=O)OCCCCOC(=O)OCCCCCCOc1ccc(Oc2ccc(O*)cc2)cc1` (repeat unit), the glass transition temperature is -8.00 °C.

For `*CCCCCCOC(=O)OCCCOC(=O)OCCCCCCOc1ccc(Oc2ccc(O*)cc2)cc1` (repeat unit), the glass transition temperature was -6.00 °C.

In turn, `*CCCCCCOC(=O)c1ccc(-c2ccc(-c3ccc(C(=O)O*)cc3)cc2)cc1` (repeat unit) registered a glass transition temperature of 60.00 °C.

Consider `*CCCCCOC(=O)OCCCCCN1C(=O)c2ccc(-c3ccc4c(c3)C(=O)N(*)C4=O)cc2C1=O` (repeat unit), for which the glass transition temperature was 84.00 °C.

Molecule `*CCCCCOC(=O)c1ccc(-c2ccc(-c3ccc(C(=O)O*)cc3)cc2)cc1` (repeat unit) gave a glass transition temperature of 40.00 °C.

`*CCCCCOC(=O)c1ccc(/C=C/c2ccc(C(=O)O*)cc2)cc1` (repeat unit) returned a glass transition temperature of 60.00 °C.

Molecule `*CCCCCOC(=O)c1cccc(C(=O)O*)c1` (repeat unit) yielded a glass transition temperature of 7.00 °C.

`*CCCCCOc1ccc(CCc2ccc(O*)cc2C)cc1` (repeat unit) registered a glass transition temperature of 15.40 °C.

In turn, `*CCCCCOc1ccc(OCCCCCc2nnc(-c3ccc(-c4nnc(*)o4)cc3)o2)c(C)c1` (repeat unit) gave a glass transition temperature of 95.00 °C.

In turn, `*CCCCOC(=O)O*` (repeat unit) showed a glass transition temperature of -27.00 °C.

`*CCCCOC(=O)OCC1CCC(COC(=O)O*)CC1` (repeat unit) came in with a glass transition temperature of 13.00 °C.

With `*CCCCOC(=O)c1ccc(-c2ccc(-c3ccc(C(=O)O*)cc3)cc2)cc1` (repeat unit), the glass transition temperature amounted to 180.00 °C.

Take `*CCCOC(=O)O*` (repeat unit): the glass transition temperature is -17.70 °C.

As to `*CCCOC(=O)c1cccc(C(=O)O*)c1` (repeat unit), the glass transition temperature worked out at 36.00 °C.

As to `*CCCOCCCOC(=O)c1ccc(-c2ccc(C(=O)O*)cc2)cc1` (repeat unit), the glass transition temperature came to 18.50 °C.

`*CCCS(=O)(=O)CCCCS(=O)(=O)CCCOC(=O)c1cccc(C(=O)O*)c1` (repeat unit) returned a glass transition temperature of 65.00 °C.

For the molecule `*CCCS(=O)(=O)CCCS(=O)(=O)CCCOC(=O)c1cccc(C(=O)O*)c1` (repeat unit), the glass transition temperature came to 67.00 °C.

Turning to `*CCCS(=O)(=O)CCCS(=O)(=O)CCCOC(=O)c1ccccc1C(=O)O*` (repeat unit), the glass transition temperature was 52.00 °C.

On to `*CCN(CCOC(=O)c1cc(OC2CCN(c3ccc(S(=O)(=O)C(F)(F)C(F)(F)C(F)(F)C(F)(F)C(F)(F)C(F)(F)C(F)(F)C(F)(F)F)cc3)CC2)cc(C(=O)O*)c1)c1ccc(S(=O)(=O)C(F)(F)C(F)(F)C(F)(F)C(F)(F)C(F)(F)C(F)(F)C(F)(F)C(F)(F)F)cc1` (repeat unit), for which the glass transition temperature worked out at 99.00 °C.

Regarding `*CCOC(=O)C1=CCCCC(N2CCCC2)=C1C(=O)O*` (repeat unit), the glass transition temperature turned out to be 352.50 °C.

In the case of `*CCOC(=O)C1C2C=CC(C2)C1C(=O)O*` (repeat unit), the glass transition temperature came to 0.00 °C.

In turn, `*CCOC(=O)C1CCC(C(=O)O*)CC1` (repeat unit) had a glass transition temperature of 25.00 °C.

Turning to `*CCOC(=O)c1ccc(-c2ccc(C(=O)O*)cc2)cc1` (repeat unit), the glass transition temperature turned out to be 40.00 °C.

Molecule `*CCOC(=O)c1cccc2c(C(=O)O*)cccc12` (repeat unit) returned a glass transition temperature of 78.00 °C.

`*CCOCCOC(=O)C(=O)O*` (repeat unit) came in with a glass transition temperature of -28.00 °C.

Molecule `*CCOCCOC(=O)C1CCC(C(=O)O*)CC1` (repeat unit) came in with a glass transition temperature of -12.00 °C.

Molecule `*OC(=O)OCCCCCCCCOC(=O)OC1COC2C(*)COC12` (repeat unit) yielded a glass transition temperature of 19.50 °C.

As to `*OCCOC(=O)CCCC(=O)OCCOc1nc(-c2ccc(OCCCC)cc2)nc(*)c1-c1ccc(OCCCC)cc1` (repeat unit), the glass transition temperature came to 37.00 °C.

Take `*Oc1ccc(-c2ccc(Oc3ccc(C(=O)c4ccc(*)c(S(=O)(=O)O)c4)cc3S(=O)(=O)O)cc2)cc1` (repeat unit): the glass transition temperature came to 225.00 °C.

Regarding `*Oc1ccc(-c2ccc(Oc3ccc(C(=O)c4ccc(*)cc4)cc3)cc2)cc1` (repeat unit), the glass transition temperature turned out to be 167.00 °C.

In turn, `*Oc1ccc(C(=O)OCCCCCCCOC(=O)c2ccc(OC(=O)c3ccc(C(*)=O)cc3)cc2)cc1` (repeat unit) displayed a glass transition temperature of 70.00 °C.

In the case of `*Oc1ccc(C(=O)OCCCCOC(=O)c2ccc(*)cc2)cc1` (repeat unit), the glass transition temperature worked out at 38.00 °C.

Molecule `*Oc1ccc(C(=O)OCCCOC(=O)c2ccc(*)cc2)cc1` (repeat unit) came in with a glass transition temperature of 57.00 °C.

`*Oc1ccc(C(=O)OCCOC(=O)c2ccc(*)cc2)cc1` (repeat unit) yielded a glass transition temperature of 74.00 °C.

In turn, `*c1ccc(-c2ccc(-n3c(-c4ccc(Oc5ccc(C(=O)c6ccc(Oc7ccc(-c8nc9ccccc9n8*)cc7)cc6)cc5)cc4)nc4ccccc43)cc2)cc1` (repeat unit) yielded a glass transition temperature of 268.00 °C.

Take `*c1ccc(C(=O)OCCCCCCCCOC(=O)c2ccc(-c3nnc(*)s3)cc2)cc1` (repeat unit): the glass transition temperature stood at 86.00 °C.

Take `*c1ccc(C(=O)OCCCCCCOC(=O)c2ccc(-c3nnc(*)s3)cc2)cc1` (repeat unit): the glass transition temperature stood at 125.00 °C.

As for `*c1ccc(C(=O)OCCCCCCOc2ccc(/C=C3\CCCC/C(=C\c4ccc(OCCCCCCOC(=O)c5ccc(-c6nnc(*)o6)cc5)cc4)C3=O)cc2)cc1` (repeat unit), the glass transition temperature was found to be 104.00 °C.

For the molecule `*c1ccc(Oc2ccc(-c3csc(/N=C/c4ccc(OCCCCCCCCOc5ccc(/C=N/c6nc(*)cs6)cc5)cc4)n3)cc2)cc1` (repeat unit), the glass transition temperature worked out at 150.00 °C.

Turning to `*c1ccc(Oc2ccc(C(=O)c3ccc(Oc4ccc(-c5cc(*)[nH]n5)cc4)cc3)cc2)cc1` (repeat unit), the glass transition temperature amounted to 229.00 °C.

Molecule `*c1ccc(Oc2ccc(C(=O)c3ccc(Oc4ccc(-c5nc(-c6ccccn6)nnc5*)cc4)cc3)cc2)cc1` (repeat unit) registered a glass transition temperature of 223.00 °C.

`*c1ccc(Oc2ccc(C(=O)c3ccc(Oc4ccc(C(=O)c5ccc(Oc6ccc(-c7nc8ccccc8n7-c7ccc(-n8c(*)nc9ccccc98)cc7)cc6)cc5)cc4)cc3)cc2)cc1` (repeat unit) registered a glass transition temperature of 223.00 °C.
